Read-outs that look alike come from different tables or passages of the source.
Test system: HBV DNA in HepG2.2.15 cells
Test: HBV in vitro assay quantitive qPCR test
Assay type: cell-based
Conditions: Hepatitis B virus
Method: • 1 Purpose of the test: • The content of HBV DNA in HepG2.2.15 cells was detected by real time quantitive qPCR test to evaluate an inhibitory action of the compound on HBV with an EC50 value of the compound as an indicator. • 2 Experimental materials: • 2.1 Cell lines: HepG2.2.15 Cells • HepG2.2.15 cell culture media (DMEM/F12, Invitrogen-11330057; 10% serum, Invitrogen-10099141; 100 units/ml Penicillin and 10 μg/ml Streptomycin, Invitrogen-15140122; 1% non-essential amino acid, Invitrogen-1140076; 2 mM L-GLUTAMINE, Invitrogen-25030081; 300 μg/ml Geneticin, Invitrogen-10131027 • 2.2 Reagents: • trypsin (Invitrogen-25300062) • DPBS (Hyclone-SH30028.01B) • DMSO (Sigma-D2650-100ML) • High-Throughput DNA Purification Kit (QIAamp 96 DNA Blood Kit, Qiagen-51162) • Quantitative Fast Start Universal Probe Reagent (FastStart Universal Probe Master, Roche-04914058001) • 2.3 Materials and Instruments: • 96-well cell culture plate (Corning-3599) • CO2 Incubator (HERA-CELL-240) • Optical Sealing Membrane (ABI-4311971) • Quantitative PCR 96-well Plate (Applied Biosystems-4306737) • Fluorescent Quantitative PCR Instrument (Applied Biosystems-7500 real time PCR system) • 3. Testing steps and Methods: • 3.1 HepG2.2.15 cells (4×10^4 cells/well) were planted into a 96-well plate, and at 37° C., 5% CO2 cultured overnight. • 3.2 On Day 2, the compounds were diluted in totally 8 concentrations with a dilution gradient of three times. The compounds at different concentrations were added into the culture wells in duplicate. The final concentration of DMSO in the culture media was 1%. 1 μM GLS4 was used as 100% inhibition control; 1% DMSO as 0% inhibition control. • 3.3 On Day 5, replacing with the fresh culture media containing the compound was performed. • 3.4 On Day 8, the culture media in the culture wells was collected, and DNA was extracted with a High-Throughput DNA Purification Kit (Qiagen-51162), See Specification of the product for specific steps. • 3.5 Preparation of PCR Reaction Mixture was shown in Table 1:
• 3.6 To each well of a 96-well PCR plate was added 15 μl reaction mixture, and then to each well was added 10 μl sample DNA or HBV DNA standard. • 3.7 The reaction conditions of PCR were: heating at 95° C. for 10 minutes; then at 95° C. denaturing for 15 seconds, and at 60° C. extending for 1 minute, totally 40 cycles. • 3.8 Data Analysis: • 3.8.1 The inhibition percentage was calculated: % Inh.=[1−(DNA copy number in sample−DNA copy number in 1 μM GLS4)/(DNA copy number in DMSO control−DNA copy number in 1 μM GLS4)]×100. • 3.8.2 Calculating EC50: the concentration of the compound for 50% inhibition of HBV (EC50) was calculated by using GraphPad Prism Software. • 4 Testing Results • The testing results were shown in Table 3: […]

[1] = qPCR assay, HepG2.2.15 cells, read-out: Concentration for 50% inhibition of HBV (EC50)value
[2] = summary list of target compounds, Examples 166-220 (values of Table 3), HepG2.2.15 cells, read-out: BIOACTIVITY (inhibitory actions on HBV DNA, EC50)
[3] = HepG2.2.15, read-out: BIOACTIVITY (inhibitory actions on HBV DNA, EC50)
[4] = HepG2.2.15, read-out: Concentration for 50% inhibition of HBV (EC50)value

| Compound | EC50 [1] [nM] | EC50 [2] [nM] | EC50 [3] [nM] | EC50 [4] [nM] |
| --- | --- | --- | --- | --- |
| COC(=O)C1=C2C[C@H](NS(=O)(=O)C(C)(C)C)CN2C(c2nccs2)=N[C@H]1c1ccc(F)cc1Cl [Example 170] | < 100 | < 100 |  |  |
| COC(=O)C1=C2C[C@H](NS(C)(=O)=O)CN2C(c2nccs2)=N[C@H]1c1ccc(F)cn1 [Example 194] | 1000 to 5000 | 1000 to 5000 |  |  |
| COC(=O)C1=C2C[C@H](NS(C)(=O)=O)CN2C(c2nccs2)=N[C@H]1c1sccc1Cl [Example 177] |  |  | < 100 | < 100 |
| COC(=O)C1=C2C[C@H](NS(C)(=O)=O)CN2C(c2ncc(F)cc2F)=N[C@H]1c1ccc(F)cc1Cl [Example 191] | < 100 | < 100 |  |  |
| COC(=O)C1=C2C[C@H](NS(C)(=O)=O)CN2C(c2nccs2)=N[C@H]1c1ccc(F)cc1C [Example 180] | < 100 | < 100 |  |  |
| COC(=O)C1=C2C[C@H](NS(N)(=O)=O)CN2C(c2nccs2)=N[C@H]1c1ccc(F)c(F)c1F [Example 193] | < 100 | < 100 |  |  |
| COC(=O)C1=C2C[C@H](NS(=O)(=O)c3ccccc3)CN2C(c2nccs2)=N[C@H]1c1ccc(F)cc1Cl [Example 189] | < 100 | < 100 |  |  |
| COC(=O)C1=C2C[C@H](N(C(C)C)S(C)(=O)=O)CN2C(c2nccs2)=N[C@H]1c1ccc(F)cc1Cl [Example 184] | 100 to 500 | 100 to 500 |  |  |
| COC(=O)C1=C2C[C@H](NS(C)(=O)=O)CN2C(c2nccs2)=N[C@H]1c1ccc(F)c(F)c1F [Example 167] | < 100 | < 100 |  |  |
| COC(=O)C1=C2C[C@H](NS(=O)(=O)CCN(C)C)CN2C(c2nccs2)=N[C@H]1c1ccc(F)cc1Cl [Example 166] | < 100 | < 100 |  |  |
| [H]/N=C(\N)N[C@H]1CC2=C(C(=O)OC)[C@H](c3ccc(F)cc3Cl)N=C(c3nccs3)N2C1 [Example 195] | 1000 to 5000 | 1000 to 5000 |  |  |
| COC(=O)C1=C2C[C@H](N(CCO)S(C)(=O)=O)CN2C(c2nccs2)=N[C@H]1c1ccc(F)cc1Cl [Example 188] | < 100 | < 100 |  |  |
| COC(=O)C1=C2C[C@H](NC(=O)C3CC3)CN2C(c2nccs2)=N[C@H]1c1ccc(F)cc1Cl [Example 173] | < 100 | < 100 |  |  |
| COC(=O)C1=C2C[C@H](NS(N)(=O)=O)CN2C(c2nccs2)=N[C@H]1c1cccc(F)c1Cl [Example 218] | < 100 | < 100 |  |  |
| COC(=O)C1=C2C[C@@H](NS(C)(=O)=O)CN2C(c2nccs2)=N[C@@H]1c1ccc(F)cc1Cl [Example 178] | 100 to 500 | 100 to 500 |  |  |
| COC(=O)C1=C2C[C@H](NS(=O)(=O)N(C)C)CN2C(c2nccs2)=N[C@H]1c1ccc(F)c(F)c1F [Example 207] | < 100 | < 100 |  |  |
| COC(=O)C1=C2C[C@H](N(CC(F)F)S(C)(=O)=O)CN2C(c2nccs2)=N[C@H]1c1ccc(F)cc1Cl [Example 179] | 100 to 500 | 100 to 500 |  |  |
| CCS(=O)(=O)N[C@H]1CC2=C(C(=O)OC)[C@H](c3cccc(F)c3Cl)N=C(c3nccs3)N2C1 [Example 213] | < 100 | < 100 |  |  |
| COC(=O)C1=C2C[C@H](N(CC#N)S(C)(=O)=O)CN2C(c2nccs2)=N[C@H]1c1ccc(F)cc1Cl [Example 182] | < 100 | < 100 |  |  |
| COC(=O)C1=C2C[C@H](NS(C)(=O)=O)CN2C(c2nccs2)=N[C@H]1c1ccc(F)cc1C(F)(F)F [Example 203] | 100 to 500 | 100 to 500 |  |  |
| COC(=O)CS(=O)(=O)N[C@H]1CC2=C(C(=O)OC)[C@H](c3ccc(F)cc3Cl)N=C(c3nccs3)N2C1 [Example 172] | < 100 | < 100 |  |  |
| CCN([C@H]1CC2=C(C(=O)OC)[C@H](c3ccc(F)cc3Cl)N=C(c3nccs3)N2C1)S(C)(=O)=O [Example 183] | < 100 | < 100 |  |  |

| Compound | EC50 [1] [nM] | EC50 [2] [nM] | EC50 [3] [nM] | EC50 [4] [nM] |
| --- | --- | --- | --- | --- |
| COC(=O)C1=C2C[C@H](NS(=O)(=O)OC)CN2C(c2nccs2)=N[C@H]1c1ccc(F)cc1Cl [Example 185] | < 100 | < 100 |  |  |
| COC(=O)C1=C2C[C@H](NS(C)(=O)=O)CN2C(c2nccs2)=N[C@H]1c1ccc(F)cc1F [Example 205] | < 100 | < 100 |  |  |
| COC(=O)C1=C2C[C@H](NS(=O)(=O)NC(C)C)CN2C(c2nccs2)=N[C@H]1c1cccc(F)c1Cl [Example 216] | < 100 | < 100 |  |  |
| COC(=O)C1=C2C[C@H](NS(C)(=O)=O)CN2C(c2ncc(C)s2)=N[C@H]1c1ccc(F)cc1Cl [Example 202] | 100 to 500 | 100 to 500 |  |  |
| CNS(=O)(=O)N[C@H]1CC2=C(C(=O)OC)[C@H](c3ccc(F)c(F)c3F)N=C(c3nccs3)N2C1 [Example 206] | < 100 | < 100 |  |  |
| COC(=O)C1=C2C[C@H](N3CCCS3(=O)=O)CN2C(c2nccs2)=N[C@H]1c1ccc(F)cc1Cl [Example 187] | < 100 | < 100 |  |  |
| COC(=O)C1=C2C[C@H](NS(=O)(=O)N3CCCC3)CN2C(c2nccs2)=N[C@H]1c1ccc(F)c(F)c1F [Example 208] | < 100 | < 100 |  |  |
| COC(=O)C1=C2C[C@H](NS(N)(=O)=O)CN2C(c2nccs2)=N[C@H]1c1cccc(F)c1F [Example 220] | < 100 | < 100 |  |  |
| COC(=O)C1=C2C[C@H](NS(=O)(=O)c3cccnc3)CN2C(c2nccs2)=N[C@H]1c1ccc(F)cc1Cl [Example 199] | < 100 | < 100 |  |  |
| COC(=O)C1=C2C[C@H](NS(N)(=O)=O)CN2C(c2ncc(F)cc2F)=N[C@H]1c1ccc(F)c(F)c1F [Example 219] | 100 to 500 | 100 to 500 |  |  |
| COC(=O)C1=C2C[C@H](NS(C)(=O)=O)CN2C(c2nccs2)=N[C@H]1c1ccc(F)c(F)c1Cl [Example 201] | < 100 | < 100 |  |  |
| CCCCNS(=O)(=O)N[C@H]1CC2=C(C(=O)OC)[C@H](c3ccc(F)c(F)c3F)N=C(c3nccs3)N2C1 [Example 214] | < 100 | < 100 |  |  |
| COC(=O)C1=C2C[C@H](NC(=O)OC(C)(C)C)CN2C(c2nccs2)=N[C@H]1c1cccc(F)c1Cl [Example 217] | < 100 | 1000 to 5000 |  |  |
| COC(=O)C1=C2C[C@H](N(C)S(C)(=O)=O)CN2C(c2nccs2)=N[C@H]1c1ccc(F)cc1Cl [Example 169] | < 100 | < 100 |  |  |
| COC(=O)C1=C2C[C@H](N(C)S(N)(=O)=O)CN2C(c2nccs2)=N[C@H]1c1ccc(F)cc1Cl [Example 192] | < 100 | < 100 |  |  |
| COC(=O)C1=C2C[C@H](NS(=O)(=O)NC(C)(C)C)CN2C(c2nccs2)=N[C@H]1c1ccc(F)c(F)c1F [Example 210] | < 100 | < 100 |  |  |
| COC(=O)C1=C2C[C@H](NS(=O)(=O)c3ccccc3F)CN2C(c2nccs2)=N[C@H]1c1ccc(F)cc1Cl [Example 204] | < 100 | < 100 |  |  |
| COC(=O)C1=C2C[C@H](NP(=O)(OC)OC)CN2C(c2nccs2)=N[C@H]1c1ccc(F)cc1Cl [Example 190] |  |  | 100 to 500 | 100 to 500 |
| COC(=O)C1=C2C[C@H](NS(=O)(=O)N(C)C)CN2C(c2nccs2)=N[C@H]1c1cccc(F)c1Cl [Example 215] | < 100 | < 100 |  |  |
| COC(=O)C1=C2C[C@H](N(O)S(C)(=O)=O)CN2C(c2nccs2)=N[C@H]1c1ccc(F)cc1Cl [Example 196] | 1000 to 5000 | 1000 to 5000 |  |  |
| COC(=O)C1=C2C[C@H](NS(=O)(=O)O)CN2C(c2nccs2)=N[C@H]1c1ccc(F)cc1Cl [Example 175] | 1000 to 5000 | 1000 to 5000 |  |  |
| CCOC(=O)C1=C2CN(CCO)S(=O)(=O)CN2C(c2nccs2)=N[C@H]1c1ccc(F)cc1Cl [Example 176] | 1000 to 5000 | 1000 to 5000 |  |  |

From patent US9938301B2, “Dihydropyrimido fused ring derivative as HBV inhibitor” (QILU PHARMACEUTICAL CO., LTD., priority 2014, dated 2018)
